Experimental data reported in ChEMBL document CHEMBL1921793, “Bacterial production of the tunicate-derived antitumor cyclic depsipeptide didemnin B” (J Nat Prod, 2011).
In brackets after ≈: the same amount, converted by molar mass.

What was measured:
HT-29 = test: Cytotoxicity against human HT-29 cells after 96 hrs by microplate reader analysis; type: functional, cell-based; conditions: HT-29, 96 h
A549 = test: Cytotoxicity against human A549 cells after 96 hrs by microplate reader analysis; type: functional, cell-based; conditions: A549, 96 h

Q: Which results are given for `CC[C@H](C)[C@@H]1NC(=O)[C@@H](NC(=O)[C@@H](CC(C)C)N(C)C(=O)[C@@H]2CCCN2C(=O)[C@H](C)OC(C)=O)[C@H](C)OC(=O)[C@H](Cc2ccc(OC)cc2)N(C)C(=O)[C@@H]2CCCN2C(=O)[C@H](CC(C)C)NC(=O)[C@@H](C)C(=O)[C@H](C(C)C)OC(=O)C[C@@H]1O` [NORDIDEMNIN B]?
A: IC50 (HT-29): 0.01 µg/mL (≈ 8.66 nM); IC50 (A549): 7 ng/mL (≈ 6.06 nM)
